By IC50 is commonly meant the concentration that gives 50% inhibition.

For data set [1], the system named is S1-M1-80 cells expressing MXR. Nature of the data set: In vitro cytotoxicity assay (sulforhodamine B staining). Format: cell-based, human. The following applies: for IC50: Homo sapiens, S1-M1-80, 96 h; for RR (relative resistance): S1-M1-80 cells relative to S1 parental; for DMF +0.5 μM GF120918: IC50 without / IC50 with 0.5 μM GF120918; for DMF +1.0 μM GF120918: IC50 without / IC50 with 1.0 μM GF120918. On the procedure:
(§1) Reversal of resistance was determined in cytotoxicity assays using the sulforhodamine staining (Skehan et al. (1990) J. Natl. […] Briefly, cells were harvested and seeded at a density of 2000 cells/well for the colon cancer lines and 4000 cells/well for the breast cancer cell lines in flat-bottom 96-well plates. The cells were incubated for 24 h at 37° C. to allow attachment prior to addition of the drugs. […] Each concentration was tested in triplicate and the controls were done in replicates of eight. Results are representative of from three to six experiments. […] After incubation, the cells were fixed in TCA and stained with sulforhodamine B (SRB) solution (0.4% wt/vol in 1% acetic acid) (Sigma Chemical, St Louis, Mo.). Optical densities were read on a Bio-Rad plate reader (Hercules, Calif.) at an absorbance of 540 nm.
For orientation: In SRB staining, fixed cells bind dye roughly in proportion to their protein.

Data set [2] concerns S1-B1-20 Pgp-overexpressing cells. The description is as above. The following applies: for IC50: Homo sapiens, S1B1-20, 96 h; for RR (relative resistance): S1-B1-20 cells relative to S1 parental; for DMF +0.5 μM GF120918 / DMF +1.0 μM GF120918 / relative resistance: S1-B1-20 cells; for DMF +0.5 μM GF120918: IC50 without / IC50 with 0.5 μM GF120918; for DMF +1.0 μM GF120918: IC50 without / IC50 with 1.0 μM GF120918. Format: cell-based, human. On the procedure: as §1

A further data set deals with MCF-7 parental cells. The description is as above. The following applies: for IC50: Homo sapiens, MCF7, 96 h. Format: cell-based, human. On the procedure: as §1
The test system of another data set is S1 parental cells. Described as above. Conditions: for IC50: Homo sapiens; for DMF +0.5 μM GF120918 / DMF +1.0 μM GF120918: S1 cells; for DMF +0.5 μM GF120918: IC50 without / IC50 with 0.5 μM GF120918; for DMF +1.0 μM GF120918: IC50 without / IC50 with 1.0 μM GF120918. Format: cell-based, human. On the procedure: as §1
For a further data set, the target named is T1, MXR (S1-M1-80 cells) (Homo sapiens, UniProt Q9UNQ0, R482G).
T1 construct: express high levels of a mitoxantrone transporter (Miyake et al. (1999) Cancer Res.59: 8-13); endogenous in cells; host or cells: S1-M1-80 (mitoxantrone-selected subline of S1 colon carcinoma cells)
T1 sequence (Q9UNQ0 1-655 R482G): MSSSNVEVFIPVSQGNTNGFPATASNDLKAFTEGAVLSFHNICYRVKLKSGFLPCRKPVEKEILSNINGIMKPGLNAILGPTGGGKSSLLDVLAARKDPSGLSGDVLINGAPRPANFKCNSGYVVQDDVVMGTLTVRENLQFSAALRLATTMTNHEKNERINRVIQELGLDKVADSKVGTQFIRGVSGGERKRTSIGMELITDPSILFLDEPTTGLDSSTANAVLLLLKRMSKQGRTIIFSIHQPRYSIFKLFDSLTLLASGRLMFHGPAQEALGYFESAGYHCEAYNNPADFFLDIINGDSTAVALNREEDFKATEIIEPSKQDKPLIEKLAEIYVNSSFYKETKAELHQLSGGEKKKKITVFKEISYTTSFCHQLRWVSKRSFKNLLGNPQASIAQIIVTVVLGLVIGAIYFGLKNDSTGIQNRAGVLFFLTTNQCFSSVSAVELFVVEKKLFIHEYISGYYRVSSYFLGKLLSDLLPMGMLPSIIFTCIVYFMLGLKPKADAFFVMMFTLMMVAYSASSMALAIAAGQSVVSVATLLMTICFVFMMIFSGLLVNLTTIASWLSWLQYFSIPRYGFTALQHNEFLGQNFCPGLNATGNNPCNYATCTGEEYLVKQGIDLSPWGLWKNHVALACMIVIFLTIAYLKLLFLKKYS
Nature of the data set: Rhodamine efflux assay (flow cytometry). Format: cell-based. On the procedure:
To provide confirmation, rhodamine efflux assays were performed. […] The results are depicted in FIG. 2.
In general terms: A flow cytometer gives signals particle by particle.

Data set [3] relates to S1 parental cells (low endogenous level of Pgp). Nature of the data set: Rhodamine efflux assay (flow cytometry). In kind it is cell-based, human. On the procedure: The rhodamine and calcein efflux assays were performed as previously described with minor modifications (Lee et al. (1994) Mol. Pharmacol. 46: 627-638; Versantvoort et al. (1995) Int. J. Cancer 63: 855-862.) Suspensions of logarithmic phase cells were obtained from tissue culture flasks by trypsinization and transferred into round-bottom 96-well plates. […] After the efflux period, the cells were washed with DPBS and placed on ice. A FACSort flow cytometer (Becton Dickinson, San Jose, Calif.) with a 488-nm argon laser was used to analyze the samples. Rhodamine 123 or calcein fluorescence was collected after a 530 nm bandpass filter. A minimum of 10,000 events was collected per sample and the samples were gated on forward scatter versus side scatter to exclude clumps and debris; dead cells were excluded based on propidium iodide staining.
To provide confirmation, rhodamine efflux assays were performed. […] After an accumulation and efflux period, rhodamine fluorescence was quantitated by flow cytometric analysis. The results are depicted in FIG. 2. […] PSC 833, a cyclosporin-D analog, was used as a positive control for Pgp antagonism.

The mark [4] stands for this setting: S1-M1-80 cells, chemotherapy drug without GF120918, 96 h, read-out: IC50.
The mark [5] stands for this setting: read-out: IC50 +0.5 μM GF120918, S1-M1-80 cells, with 0.5 μM GF120918, 96 h.
Setting [6] is: read-out: IC50 +0.5 μM GF120918.
The mark [7] stands for this setting: read-out: IC50 +1.0 μM GF120918.
[8] abbreviates: 96 h, read-out: IC50 +0.5 μM GF120918.
[9] abbreviates: 96 h, read-out: IC50 +1.0 μM GF120918.

Read-outs that look alike come from different tables or passages of the source.

In the case of `O=C1c2c(O)ccc(O)c2C(=O)c2c(NCCNCCO)ccc(NCCNCCO)c21` [Mitoxantrone], the IC50 in data set [1] (setting [4]) was determined as 222 ± 101 µM; in data set [1] (setting [5]), 1.57 ± 0.95 µM; in data set [1] (read-out: IC50 +1.0 μM GF120918, S1-M1-80 cells, with 1.0 μM GF120918, 96 h) it was 0.12 ± 0.11 µM; in data set [2] (setting [6]), 0.015 ± 0.0056 µM; in data set [2] (setting [7]) it was 0.013 ± 0.0066 µM; in data set [2] (read-out: IC50) it was 0.41 ± 0.61 µM. Moreover, the IC50 in the data set with MCF-7 parental cells (setting [6]) was 0.0057 ± 0.0073 µM; in the data set on MCF-7 parental cells (setting [7]) it was 0.0056 ± 0.0081 µM; in the data set with MCF-7 parental cells (read-out: IC50), 0.025 ± 0.019 µM; in the data set on S1 parental cells (setting [8]), 0.0053 ± 0.0043 µM; in the data set with S1 parental cells (setting [9]), 0.0052 ± 0.0044 µM; in the data set on S1 parental cells (96 h, read-out: IC50), 0.0062 ± 0.0047 µM. The “RR (relative resistance)” value in data set [1] is 35806; in data set [2], 66. The “DMF +0.5 μM GF120918” value in data set [1] (S1-M1-80 cells) worked out at 141; in data set [2], 27; in the data set on S1 parental cells, 1.2. Further, the “DMF +1.0 μM GF120918” value in data set [1] (S1-M1-80 cells) is reported as 1850; in data set [2] it was 31; in the data set with MCF-7 parental cells (MCF-7 cells, IC50 without / IC50 with 1.0 μM GF120918) it was 4.4; in the data set on S1 parental cells it was 1.2. In the data set with MCF-7 parental cells (MCF-7 cells, IC50 without / IC50 with 0.5 μM GF120918), the “DMF (Dose Modifying Factor) +0.5 μM GF120918” value was 4.4.

Turning to `C/C=C/C[C@@H](C)C(=O)[C@H]1C(=O)N[C@@H](C(C)C)C(=O)N(C)CC(=O)N(C)[C@@H](CC(C)C)C(=O)N[C@@H](C(C)C)C(=O)N(C)[C@@H](CC(C)C)C(=O)N[C@@H](C)C(=O)N[C@H](C)C(=O)N(C)[C@@H](CC(C)C)C(=O)N(C)[C@@H](CC(C)C)C(=O)N(C)[C@@H](C(C)C)C(=O)N1C` [PSC 833], the “antagonism of MXR” value at MXR (S1-M1-80 cells) is reported as “not an effective antagonist for MXR”. The “effect on rhodamine accumulation and efflux” value in data set [3] was “small increase in rhodamine accumulation and a decrease in efflux”.

In the case of `CC(=O)O[C@H]1C(=O)[C@@]2(C)[C@H]([C@H](OC(=O)c3ccccc3)[C@]3(O)C[C@H](OC(=O)[C@H](O)[C@@H](NC(=O)c4ccccc4)c4ccccc4)C(C)=C1C3(C)C)[C@]1(OC(C)=O)CO[C@@H]1C[C@@H]2O` [paclitaxel], the relative resistance is 1.5 fold in data set [1] (S1-M1-80 cells) and 200 fold in data set [2].

`CC[C@@]1(O)C(=O)OCc2c1cc1n(c2=O)Cc2cc3c(CN(C)C)c(O)ccc3nc2-1` [topotecan]: the IC50 was found to be 12 ± 5 µM in data set [1] (setting [4]); 2 µM in data set [1] (setting [5]); 0.04 µM in data set [2] (setting [6]); 0.027 ± 0.005 µM in data set [2] (setting [7]); 0.16 ± 0.05 µM in data set [2] (read-out: IC50); 0.034 µM in the data set with S1 parental cells (setting [8]). Moreover, the IC50 was found to be 0.025 ± 0.007 µM in the data set on S1 parental cells (setting [9]); 0.036 ± 0.0085 µM in the data set with S1 parental cells (96 h, read-out: IC50); 0.036 µM in the data set on S1 parental cells (read-out: IC50). Further, the relative resistance in data set [1] (S1-M1-80 cells) worked out at 334 fold; in data set [2] it was 4.4 fold. The “RR (relative resistance)” value in data set [1] came to 334; in data set [2], 4.4. Also, the “DMF +0.5 μM GF120918” value in data set [1] (S1-M1-80 cells) was 6; in data set [2], 4; in the data set with S1 parental cells it was 1.0. The “DMF +1.0 μM GF120918” value in data set [1] (S1-M1-80 cells) amounted to 23; in data set [2], 5.9; in the data set on S1 parental cells, 1.4.

The values are drawn from patent US6521635B1, “Inhibition of MXR transport by acridine derivatives” (priority 2000, dated 2003).
